Measurements published in ChEMBL document CHEMBL1133972, “Solid-Phase synthesis of a library constructed of aromatic phosphate, long alkyl chains and tryptophane components, and identification of potent dipeptide telomerase inhibitors” (Bioorg Med Chem Lett, 2001).

biological target: Telomerase reverse transcriptase (Homo sapiens, UniProt O14746); assay: Inhibitory activity against telomerase extracted from HCT 116 cell lines; type: cell-free
Sequence (O14746 whole entry): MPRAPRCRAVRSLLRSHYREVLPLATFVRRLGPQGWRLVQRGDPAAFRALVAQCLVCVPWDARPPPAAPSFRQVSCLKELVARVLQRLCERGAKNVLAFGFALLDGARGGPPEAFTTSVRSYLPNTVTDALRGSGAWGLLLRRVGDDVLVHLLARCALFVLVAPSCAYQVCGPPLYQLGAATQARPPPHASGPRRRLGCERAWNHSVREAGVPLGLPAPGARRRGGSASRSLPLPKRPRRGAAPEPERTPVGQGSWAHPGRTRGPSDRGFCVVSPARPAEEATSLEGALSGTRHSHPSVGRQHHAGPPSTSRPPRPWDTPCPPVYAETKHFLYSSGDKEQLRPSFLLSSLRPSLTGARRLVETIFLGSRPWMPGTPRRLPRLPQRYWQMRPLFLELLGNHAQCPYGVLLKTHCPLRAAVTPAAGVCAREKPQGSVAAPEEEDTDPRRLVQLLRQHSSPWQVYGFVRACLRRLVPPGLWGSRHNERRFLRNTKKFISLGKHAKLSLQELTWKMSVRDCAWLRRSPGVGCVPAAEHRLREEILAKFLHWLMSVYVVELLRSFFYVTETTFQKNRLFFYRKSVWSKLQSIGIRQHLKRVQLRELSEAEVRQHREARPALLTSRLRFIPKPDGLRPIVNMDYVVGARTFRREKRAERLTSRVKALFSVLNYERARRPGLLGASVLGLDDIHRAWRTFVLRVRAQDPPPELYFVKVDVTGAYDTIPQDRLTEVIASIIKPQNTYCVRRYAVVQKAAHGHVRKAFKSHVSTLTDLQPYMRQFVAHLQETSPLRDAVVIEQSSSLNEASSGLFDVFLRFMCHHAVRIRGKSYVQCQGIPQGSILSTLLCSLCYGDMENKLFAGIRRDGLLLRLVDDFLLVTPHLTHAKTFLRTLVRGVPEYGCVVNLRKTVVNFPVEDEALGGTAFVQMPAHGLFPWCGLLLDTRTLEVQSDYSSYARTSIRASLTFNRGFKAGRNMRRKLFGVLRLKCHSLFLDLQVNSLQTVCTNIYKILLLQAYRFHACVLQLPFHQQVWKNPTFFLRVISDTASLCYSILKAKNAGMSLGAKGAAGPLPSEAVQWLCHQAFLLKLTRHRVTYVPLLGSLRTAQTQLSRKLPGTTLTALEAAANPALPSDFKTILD

| SMILES | IC50 [µM] |
| --- | --- |
| CC(C)(C)OC(=O)N[C@H](Cc1c[nH]c2ccccc12)C(=O)NCCCCCCOP(=O)(O)Oc1ccccc1Cl | > 100 |
| N[C@H](Cc1c[nH]c2ccccc12)C(=O)NCCCCCCOP(=O)(O)Oc1ccccc1Cl | > 100 |
| O=C(N[C@H](Cc1c[nH]c2ccccc12)C(=O)NCCCCCCCCCCCCOP(=O)(O)Oc1ccccc1Cl)[C@H]1CCCN1 | > 100 |
| Cc1cn(CCCn2cc(CC(=O)NCCCC(=O)N3CCCC3C(=O)NCCCCCCOP(=O)(O)Oc3ccccc3Cl)c3ccccc32)c2ccccc12 (stereo not drawn) | 46.9 |
| Cc1cn(CCCn2cc(CC(=O)NCCCCCCCCCCCCOP(=O)(O)Oc3ccccc3Cl)c3ccccc32)c2ccccc12 | 3.6 |
| N[C@@H](Cc1cc2ccccc2[nH]1)C(=O)N[C@@H](Cc1c[nH]c2ccccc12)C(=O)NCCCC(=O)NCC(=O)NCCCCCCOP(=O)(O)Oc1ccccc1Cl | > 100 |
| N[C@@H](Cc1cc2ccccc2[nH]1)C(=O)N[C@@H](Cc1c[nH]c2ccccc12)C(=O)NCCCCCCCCCCCCOP(=O)(O)Oc1ccccc1Cl | 11.1 |
| N[C@H](Cc1cc2ccccc2[nH]1)C(=O)N[C@H](Cc1c[nH]c2ccccc12)C(=O)NCCCC(=O)NCC(=O)NCCCCCCOP(=O)(O)Oc1ccccc1Cl | > 100 |
| N[C@H](Cc1cc2ccccc2[nH]1)C(=O)N[C@@H](Cc1c[nH]c2ccccc12)C(=O)NCCCCCCCCCCCCOP(=O)(O)Oc1ccccc1Cl (mixture of isomers) | 10.6 |
| N[C@H](Cc1c[nH]c2ccccc12)C(=O)NCCCCCCCCCCCCOP(=O)(O)Oc1ccccc1Cl | 45.2 |
| CC(C)(C)OC(=O)N[C@H](CCC(=O)O)C(=O)N[C@H](Cc1c[nH]c2ccccc12)C(=O)NCCCCCCCCCCCCOP(=O)(O)Oc1ccccc1Cl | > 100 |
| O=C(N[C@H](Cc1ccccc1)C(=O)NCCCCCCCCCCCCOP(=O)(O)Oc1ccccc1Cl)OCc1ccccc1 | > 100 |
| CC(C)(C)OC(=O)N[C@@H](Cc1c[nH]c2ccccc12)C(=O)NCCCCCCCCCCCCOP(=O)(O)Oc1ccccc1Cl | 20.7 |
| CC(C)(C)OC(=O)N[C@@H](Cc1cc2ccccc2[nH]1)C(=O)N[C@@H](Cc1c[nH]c2ccccc12)C(=O)NCCCC(=O)NCC(=O)NCCCCCCOP(=O)(O)Oc1ccccc1Cl | > 100 |
| CC(C)(C)OC(=O)N[C@H](Cc1cc2ccccc2[nH]1)C(=O)N[C@H](Cc1c[nH]c2ccccc12)C(=O)NCCCC(=O)NCC(=O)NCCCCCCOP(=O)(O)Oc1ccccc1Cl | > 100 |
| O=C(N[C@H](Cc1c[nH]c2ccccc12)C(=O)NCCCCCCCCCCCCOP(=O)(O)Oc1ccccc1Cl)OCc1ccccc1 | 3.6 |
| CC(C)(C)OC(=O)N[C@H](Cc1cc2ccccc2[nH]1)C(=O)N[C@@H](Cc1c[nH]c2ccccc12)C(=O)NCCCC(=O)NCC(=O)NCCCCCCOP(=O)(O)Oc1ccccc1Cl (mixture of isomers) | > 100 |
| CC(C)(C)OC(=O)N[C@@H](Cc1cc2ccccc2[nH]1)C(=O)N[C@H](Cc1c[nH]c2ccccc12)C(=O)NCCCCCCCCCCCCOP(=O)(O)Oc1ccccc1Cl (mixture of isomers) | > 100 |
| CC(=O)N[C@H](Cc1cc2ccccc2[nH]1)C(=O)N[C@H](Cc1c[nH]c2ccccc12)C(=O)NCCCCCCCCCCCCOP(=O)(O)Oc1ccccc1Cl | 22.9 |
| O=C(CNC(=O)OCc1ccccc1)N[C@H](Cc1c[nH]c2ccccc12)C(=O)NCCCCCCCCCCCCOP(=O)(O)Oc1ccccc1Cl | 12.1 |
| O=C(Cc1c[nH]c2ccccc12)NCCCCCCCCCCCCOP(=O)(O)Oc1ccccc1Cl | 33.9 |
| CC(C)(C)OC(=O)N[C@H](Cc1cc2ccccc2[nH]1)C(=O)N[C@H](Cc1c[nH]c2ccccc12)C(=O)NCCCCCCCCCCCCOP(=O)(O)Oc1ccccc1Cl | 18.9 |
| CC(C)(C)OC(=O)N[C@@H](Cc1cc2ccccc2[nH]1)C(=O)N[C@@H](Cc1c[nH]c2ccccc12)C(=O)NCCCCCCCCCCCCOP(=O)(O)Oc1ccccc1Cl | 0.3 |
| CC(C)(C)OC(=O)N[C@H](CCC(=O)OCc1ccccc1)C(=O)N[C@H](Cc1c[nH]c2ccccc12)C(=O)NCCCCCCCCCCCCOP(=O)(O)Oc1ccccc1Cl | 6.4 |
| N[C@@H](Cc1ccccc1)C(=O)N[C@H](Cc1c[nH]c2ccccc12)C(=O)NCCCCCCCCCCCCOP(=O)(O)Oc1ccccc1Cl (mixture of isomers) | > 100 |
| N[C@H](Cc1cc2ccccc2[nH]1)C(=O)N[C@@H](Cc1c[nH]c2ccccc12)C(=O)NCCCC(=O)NCC(=O)NCCCCCCOP(=O)(O)Oc1ccccc1Cl (racemic) | > 100 |
| CC(=O)N[C@H](Cc1c[nH]c2ccccc12)C(=O)NCCCCCCCCCCCCOP(=O)(O)Oc1ccccc1Cl | 90.7 |
| N[C@H](Cc1ccccc1)C(=O)N[C@H](Cc1c[nH]c2ccccc12)C(=O)NCCCCCCCCCCCCOP(=O)(O)Oc1ccccc1Cl | 22.1 |

Next, values leading:

| IC50 [µM] | SMILES |
| --- | --- |
| > 100 | CC(C)(C)OC(=O)N[C@@H](Cc1cc2ccccc2[nH]1)C(=O)N[C@H](Cc1c[nH]c2ccccc12)C(=O)NCCCC(=O)NCC(=O)NCCCCCCOP(=O)(O)Oc1ccccc1Cl |
| 18.3 | CC(C)(C)OC(=O)N[C@H](Cc1c[nH]c2ccccc12)C(=O)NCCCCCCCCCCCCOP(=O)(O)Oc1ccccc1Cl |
| 29.7 | O=C(CCCc1c[nH]c2ccccc12)NCCCCCCCCCCCCOP(=O)(O)Oc1ccccc1Cl |
| 6.8 | CC(C)(C)OC(=O)N[C@H](Cc1ccccc1)C(=O)N[C@H](Cc1c[nH]c2ccccc12)C(=O)NCCCCCCCCCCCCOP(=O)(O)Oc1ccccc1Cl |
| > 100 | CC(C)(C)OC(=O)N[C@@H](Cc1ccccc1)C(=O)N[C@H](Cc1c[nH]c2ccccc12)C(=O)NCCCCCCCCCCCCOP(=O)(O)Oc1ccccc1Cl |
| > 100 | Cc1cn(CCCn2cc(CC(=O)NCCOCCOCCOCCOP(=O)(O)Oc3ccccc3Cl)c3ccccc32)c2ccccc12 |
| > 100 | N[C@@H](Cc1cc2ccccc2[nH]1)C(=O)N[C@H](Cc1c[nH]c2ccccc12)C(=O)NCCCC(=O)NCC(=O)NCCCCCCOP(=O)(O)Oc1ccccc1Cl |
| > 100 | Cc1cn(CCCn2cc(CC(=O)NCCCC(=O)NCC(=O)NCCCCCCOP(=O)(O)Oc3ccccc3Cl)c3ccccc32)c2ccccc12 |
| 15.1 | N[C@@H](Cc1c[nH]c2ccccc12)C(=O)NCCCCCCCCCCCCOP(=O)(O)Oc1ccccc1Cl |
| > 100 | CC(C)(C)OC(=O)N[C@H](Cc1cc2ccccc2[nH]1)C(=O)N[C@@H](Cc1c[nH]c2ccccc12)C(=O)NCCCCCCCCCCCCOP(=O)(O)Oc1ccccc1Cl (racemic) |
| 13.7 | N[C@H](Cc1cc2ccccc2[nH]1)C(=O)N[C@H](Cc1c[nH]c2ccccc12)C(=O)NCCCCCCCCCCCCOP(=O)(O)Oc1ccccc1Cl |
| > 100 | N[C@H](CCC(=O)O)C(=O)N[C@H](Cc1c[nH]c2ccccc12)C(=O)NCCCCCCCCCCCCOP(=O)(O)Oc1ccccc1Cl |
| 7.3 | O=C(N[C@H](Cc1c[nH]c2ccccc12)C(=O)NCCCCCCCCCCCCOP(=O)(O)Oc1ccccc1Cl)c1ccccc1 |
| 9.5 | CC(C)(C)OC(=O)N1CCC[C@@H]1C(=O)N[C@H](Cc1c[nH]c2ccccc12)C(=O)NCCCCCCCCCCCCOP(=O)(O)Oc1ccccc1Cl |
| 29.4 | Cc1cn(CCCn2cc(CC(=O)NCCCCCCOP(=O)(O)Oc3ccccc3Cl)c3ccccc32)c2ccccc12 |
